Here are results for 65 molecules from PubChem BioAssay AID179 (DTP/NCI, 2004).

The subject of the assay is CEM cells HIV-1 protection, formazan growth assay. The assay can be described thus: NCI AIDS Antiviral Assay. As to conditions: for IC50: measured here: growth of uninfected CEM cells. An outline of the steps: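 Protection of CEM cells against HIV-1 measured as cell growth via soluble formazan read-out, with five concentrations tested on both infected and uninfected cells; failure to protect may reflect toxicity.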

Activity calls are given as the source filed them.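 How the source made its calls: active means compounds giving half or more protection of infected cells from virus-caused growth loss, again on retest; inactive means the rest.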 Where a SMILES comes first, the peptide text is derived from it. Bridges are numbered along the chain shown (N, C = ends). [ ]: non-standard residue; d: D form. The star is where a group is joined. ξ: configuration not given here. X19 = O=C(OCc1ccccc1)[C@H]1CCC[C@H]1N*; ξW = NC(Cc1c[nH]c2ccccc12)C(=O)O; ξF = NC(Cc1ccccc1)C(=O)O; Cbz = O=C(OCc1ccccc1)*; Boc = CC(C)(C)OC(=O)*; Aib = CC(C)(N)C(=O)O; ξK = NCCCCC(N)C(=O)O; ξT = CC(O)C(N)C(=O)O; OBn = c1ccc(CO*)cc1; βAla = NCCC(=O)O; tBu = CC(C)(C)*

As to `CC(C)=CCC[C@@H](C)/C=C/C=C(\C)C(=O)CC[C@@H]1CC[N@+]2(C)CCCC[C@H]12`, the EC50 is > 200 µM and the IC50 worked out at 46.8 µM.
In the case of `CCOC(=O)C(NC(=O)Nc1ccccc1F)(OC)C(F)(F)F` (centres undefined), the EC50 is > 200 µM and the IC50 is > 200 µM.
In the case of `O=C1NC(=O)C(C(=O)C(=O)Nc2cc(Cl)ccc2Cl)C(=O)N1`, the EC50 was > 380 µM and the IC50 is 302 µM.
Turning to `CC1(C)NC(=O)C(NC(=O)C(N)CC(=O)O)CCCCNC(=O)CCNC1=O` (centres undefined) (H-DK[Aib][βAla]; lactam 2-C; configuration not given here), the EC50 was > 200 µM and the IC50 is > 200 µM.
Regarding `CC(=O)c1sc(=N)n(-c2c(C)cccc2C)c1C`, the EC50 is > 200 µM and the IC50 is > 200 µM.
`O=[N+]([O-])c1ccc(O)c(CN(Cc2ccccc2)Cc2c(O)ccc3ccccc23)c1`: the EC50 was > 200 µM and the IC50 is > 200 µM.
Regarding `O=C(CCl)N1CCN(C(c2ccccc2)c2ccccc2)CC1`, the EC50 is > 79.4 µM and the IC50 is 3.72 µM.
Turning to `CCOC(=O)/C(F)=C/c1cccc(F)c1`, the EC50 is > 170 µM and the IC50 is > 170 µM.
In the case of `N#CC(C(=N/NC(N)=S)/C(=N/NC(N)=S)C(C#N)c1ccc(Cl)cc1)c1ccc(Cl)cc1` (centres undefined), the EC50 was > 257 µM and the concentration for half-maximal inhibition (IC50) is 186 µM.
Regarding `C[C@H]1CC(=O)C[C@@H]2CC[C@@H]3[C@H](CC[C@]4(C)C(OC(=O)c5cccc6c(=O)c7ccccc7[nH]c56)CC[C@@H]34)[C@]21C` (some centres undefined), the EC50 was > 200 µM and the IC50 was 22.4 µM.
The matching figures for `CCc1cccc(C(C)(C)C)c1NC(=S)N/C=C(\C#N)C(=O)c1ccc2ccccc2c1`: > 200 µM and 93.3 µM.
On to `CCOC(=O)c1nc2ccc(C(F)(F)F)cc2nc1Oc1cc(OC)cc(OC)c1`, for which the EC50 was > 200 µM and the IC50 was > 200 µM.
As to `COc1ccc(C(=C2C=CC=C2)c2ccc(OC)cc2)cc1`, the EC50 is > 200 µM and the IC50 was 52.5 µM.
Regarding `CCOC(=O)c1c[nH]c(C(=O)OCC)c1-c1cccn1-c1ccccc1`, the EC50 is > 200 µM and the IC50 is 24.5 µM.
Taken in the same sequence, the figures for `CO/N=C(\C([O-])=N\[n+]1cnn(CC(=O)OC(C)(C)C)c1)c1csc(NC(c2ccccc2)(c2ccccc2)c2ccccc2)n1` were > 200 µM and 37.2 µM.
As to `O=C(c1cc(Cl)ccc1Cl)N1CCN(c2cccc(Cl)c2)CC1`, the EC50 was > 200 µM and the IC50 was 15.5 µM.
Consider `COC(=O)C([C@H]1CC[C@H](OCc2ccccc2)[C@@]1(O)COCc1ccccc1)C(C)(O)CCc1ccccc1` (some centres undefined), for which the outcome was inactive.
As to `CCOC(CC(=O)NCCNC(C)=O)OCC`, the result was inactive.
As for `CC(=O)C(=Cc1ccc([N+](=O)[O-])cc1)C(C)=O`, the EC50 is > 155 µM and the IC50 worked out at 27.5 µM.
Consider `Cc1[nH]n(C(=O)c2ccc(Cl)cc2)c(=O)c1/C=C1\C(O)=CC(=O)c2ccccc21`, for which the EC50 is > 12.9 µM and the IC50 is > 12.9 µM.
In the case of `CC(=O)NS(=O)(=O)c1ccc(N=Cc2cc(Cl)cc(Cl)c2O)cc1`, the EC50 was > 200 µM and the IC50 stood at 19.5 µM.
As for `CC1(C)N([O-])[N+](=O)C1(Br)c1ccccc1` (centres undefined), the EC50 was > 200 µM and the IC50 is 145 µM.
As to `Cc1cn(C2CC(O[Si](C)(C)C(C)(C)C)C(CNC(=O)N(O)C3CC(n4cc(C)c(=O)[nH]c4=O)OC3CO[Si](C)(C)C(C)(C)C)O2)c(=O)[nH]c1=O` (centres undefined), the EC50 is > 200 µM and the IC50 was found to be 2.09 µM.
As for `CC(=O)O[C@@H]1C(O)C=C2c3cc4c(c(O)c3C(=O)NC2[C@@H]1OC(C)=O)OCO4` (some centres undefined), the outcome was inactive.
`COC(=O)C1(CC(=O)OC(C)(C)C)NCCc2c1[nH]c1ccccc21` (centres undefined): the EC50 was > 115 µM and the IC50 stood at 95.5 µM.
The matching figures for `CN1C(=O)c2ccccc2Cc2c(Cl)ncnc21`: > 200 µM and 34.7 µM.
Regarding `COC(=O)/C=C/c1cnc2c(c1)oc(=O)n2C`, the EC50 is > 200 µM and the IC50 is > 200 µM.
As to `C=CCN1COc2c(cc3c4c(cccc24)C(=O)O3)C1`, the EC50 was > 26.9 µM and the IC50 was 4.27 µM.
As for `ON=C1CCC(c2ccccc2)CC1` (centres undefined), the result was inactive.
On to `Cn1c(O)c(C=Nc2ccccc2[N+](=O)[O-])c(=O)n(C)c1=O`, for which the outcome was inactive.
With `O/C(=C\c1nc2ccccc2nc1NC12CC3CC(CC(C3)C1)C2)c1ccc(Br)cc1`, the EC50 is > 200 µM and the IC50 is > 200 µM.
As to `CC(OC(C)(C)C)C(NC(=O)C(CCCCNC(=O)OC(C)(C)C)NC(=O)C(Cc1c[nH]c2ccccc12)NC(=O)C(Cc1ccccc1)NC(=O)OCc1ccccc1)C(=O)NC(Cc1ccccc1)C(=O)N[C@@H]1CCC[C@@H]1C(=O)OCc1ccccc1` (some centres undefined) (Cbz-[ξF][ξW][ξK](Boc)[ξT](tBu)[ξF]-X19), the outcome was inactive.
For the molecule `C[N+](C)(C)CCS(=O)(=O)[O-]`, the EC50 is > 200 µM and the IC50 is > 200 µM.
Take `O=C1OC(C2OC(=O)c3cc(O)c(O)c(O)c3-c3c(O)c(O)c4oc(=O)c5c(c(O)c(O)c6oc(=O)c3c4c65)-c3c(cc(O)c(O)c3O)C(=O)OCC2O)C2OC(=O)c3c(c(O)c(O)c(O)c3C2O)-c2c1cc(O)c(O)c2O` (centres undefined): the EC50 was 1.62 µM and the IC50 turned out to be 12 µM.
As to `Cc1nnc(NS(=O)(=O)c2ccc(N=Nc3c(N)n(C)c(=O)n(C)c3=O)cc2)s1`, the result was inactive.
As for `CCSCC1OC2OC3C(CSCC)OC(OC4C(CSCC)OC(OC5C(CSCC)OC(OC6C(CSCC)OC(OC7C(CSCC)OC(OC8C(CSCC)OC(OC1C(OS(=O)(=O)O)C2OS(=O)(=O)O)C(OS(=O)(=O)O)C8OS(=O)(=O)O)C(OS(=O)(=O)O)C7OS(=O)(=O)O)C(OS(=O)(=O)O)C6OS(=O)(=O)O)C(OS(=O)(=O)O)C5OS(=O)(=O)O)C(OS(=O)(=O)O)C4OS(=O)(=O)O)C(OS(=O)(=O)O)C3OS(=O)(=O)O` (centres undefined), the concentration for a half-maximal effect (EC50) was 2.75 µM and the IC50 amounted to 50.1 µM.
On to `CC1CC(c2ccccc2)Nc2nc3ccccc3n21` (centres undefined), for which the EC50 was > 151 µM and the concentration for half-maximal inhibition (IC50) is > 151 µM.
For the molecule `Cc1ccc2nc(NC(=O)/C(Cc3nc4ccc(Cl)cc4[nH]c3=O)=N\NC(C)(C)C)sc2c1`, the EC50 was > 74.1 µM and the IC50 is > 74.1 µM.
As to `C=CC1=C(C)C(/C=c2\[nH]/c(=C/c3[nH]c(CC4NC(=O)C(C)/C4=C\C)c(C)c3CCC(=O)O)c(CC(=O)O)c2C)=NC1=O` (centres undefined), the EC50 was > 2690 µM and the concentration for half-maximal inhibition (IC50) is > 2690 µM.
For the molecule `CC12CC3CC(C)(C1)CC(SCCN)(C3)C2`, the EC50 was > 200 µM and the IC50 was determined as 38 µM.
As for `N#Cc1ccc(C=C2C(=O)NC(=O)NC2=O)cc1`, the EC50 was > 209 µM and the IC50 amounted to 107 µM.
As for `O=C1CN(/C=C(/c2ccc(Cl)cc2)S(=O)(=O)Cc2ccc(Cl)cc2)C(=S)N1`, the EC50 was > 200 µM and the IC50 is > 200 µM.
In the case of `CCOC(=O)c1cn(CC)c2cc3c(cc2c1=O)SCS3`, the outcome was inactive.
For the molecule `CCOC(=O)C(N=Nc1ccc(S(N)(=O)=O)cc1)C(C)=O` (centres undefined), the EC50 is > 794 µM and the IC50 was 389 µM.
`CCOc1cnc([C@H]2CCC3[C@@H]4CC=C5C[C@@H](O)CC[C@]5(C)C4CC[C@@]32C)s1` (some centres undefined): the EC50 is > 61.7 µM and the IC50 is > 61.7 µM.
On to `CCCC(=O)NC1Cc2cc(C)cc(C)c21` (centres undefined), for which the EC50 was > 45.7 µM and the IC50 was > 45.7 µM.
For the molecule `CC(=O)NC1C(OCc2ccccc2)OC(CO)C(O)C1OC(C)C(=O)NC(C)C(=O)N[C@H](CCC(=O)OCCNCCCNc1ccc([N+](=O)[O-])c2[nH]c3ccccc3c(=O)c12)C(N)=O` (some centres undefined), the EC50 is > 200 µM and the IC50 was determined as 60.3 µM.
Turning to `CCCCCC1C(=O)N2C=C(c3ccccc3)c3ccccc3N2C1=O` (centres undefined), the result was inactive.
With `N#Cc1c(/N=C/c2ccccc2Cl)sc2c1CCC2`, the EC50 is > 200 µM and the IC50 is > 200 µM.
Turning to `C=C1CC2(OC1=O)c1ccccc1CCc1ccccc12`, the EC50 is > 36.3 µM and the IC50 is 6.17 µM.
The matching figures for `CCCCCCOC(=O)c1ccc(NC(=O)CN(CC)CC)cc1`: > 200 µM and 37.2 µM.
Consider `O=C(N/C(=C\c1ccc(Cl)cc1)c1nc2ccccc2[nH]1)c1ccccc1`, for which the EC50 is > 69.2 µM and the IC50 was determined as 58.9 µM.
Regarding `COC(=O)c1cc2c(=O)n(C)c(=O)n(C)c2[nH]c1=O`, the EC50 was > 200 µM and the IC50 was > 200 µM.
As to `C[C@H](CSC(=O)c1ccccc1)C(=O)N1c2ccccc2C[C@H]1C(=O)O`, the EC50 was > 200 µM and the IC50 worked out at 107 µM.
`COc1cccc(NC(=O)c2c(SC)n[nH]c2N)c1`: the EC50 was > 200 µM and the IC50 is > 200 µM.
With `CCOC(=O)Cc1nc2c(=O)[nH]cnc2n1C1OC(COC(C)=O)C(OC(C)=O)C1OC(C)=O` (centres undefined), the EC50 was > 200 µM and the IC50 was > 200 µM.
Turning to `CN(C)CC/C(=N\Nc1ccc(Cl)cc1Cl)c1ccccc1`, the result was inactive.
`O=C(O)C1(c2ccccc2)CCCNCC1` (centres undefined): the EC50 was > 6170 µM and the IC50 is > 6170 µM.
For the molecule `CNc1nnc(CCCCCCCCc2nnc(NC)o2)o1`, the EC50 is > 200 µM and the IC50 was 11.5 µM.
In the case of `O=C(C(=O)n1ccc2ccccc21)c1c[nH]c2ccccc12`, the EC50 is > 200 µM and the IC50 is > 200 µM.
`Cc1ccccc1CC1(Br)CC(C)(C)c2ccccc2C1=O` (centres undefined): the EC50 is > 200 µM and the IC50 was determined as 29.5 µM.
Take `COC(=O)CNC(=O)C(C)NC(=O)C(CC(=O)OCc1ccccc1)NC(=O)OCc1ccccc1` (stereo not drawn) (Cbz-Asp(OBn)-Ala-Gly-OMe; configuration not given here): the EC50 is > 200 µM and the IC50 turned out to be 107 µM.
As to `NC(=O)CCC(NC(=O)C(F)(F)F)C(=O)O` (centres undefined), the result was inactive.
In the case of `CN(C)CCOc1cccc(OCCN(C)C)n1`, the EC50 is > 200 µM and the 50% inhibitory concentration (IC50) is > 200 µM.
Consider `Cc1c(C(=O)CC(=O)C(=O)Nc2cc(Cl)ccc2Cl)[n+](=O)c2ccccc2n1[O-]`, for which the EC50 is > 8.71 µM and the IC50 is > 8.71 µM.

As a reminder, the EC50 is the concentration at which the effect is half-maximal. Usually IC50 stands for the concentration that inhibits the measured activity by half. A low value points to inhibition by little substance.
